Values of other authors as cited in patent publication US9670196B2, “Thiazole-substituted aminoheteroaryls as Spleen Tyrosine Kinase inhibitors” (Merck Sharp & Dohme Corp., priority 2013, dated 2017).

What was measured:
[1] = phase II clinical trial for allergic rhinitis; cited from earlier work
[2] = dosed intranasally, phase I/II study, allergic rhinitis; cited from earlier work

Oc1cccc(Nc2ncc(F)c(Nc3cccc(O)c3)n2)c1 [Example R112]
efficacy versus placebo [1]: lack of efficacy versus placebo | PGD2 [2]: statistically significant decrease | clinical safety [2]: safe across a range of indicators
